Assay results published in patent US12692254B2, “Benzimidazole inhibitors of PAD enzymes” (BRISTOL-MYERS SQUIBB COMPANY, priority 2018, dated 2026).
pIC50: −log10 of the molar value.

Biological target: human PAD4 (hPAD4) (Homo sapiens, UniProt Q9UM07)
Experiment: RFMS human PAD4 functional assay (rapid-fire mass spectrum)
Type: biochemical
Conditions: 5 nM hPAD4 enzyme, 250 μM BAEE, 50 μM Calcium; 30 min preincubation, 90 min reaction at 37° C.
How it was run: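 PAD4 (10 nM) preincubated 30 min with compound (top final 50 μM), then BAEE substrate added in pH 7.5 HEPES buffer with DTT, 50 μM calcium, TPEN; 90 min at 37° C. After TCA quench, citrulline derivatized with phenyl glyoxal (4 mM final, 30 min, 37° C) and quantified by RapidFire MS against internal standard.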

Sequence of human PAD4 (hPAD4) (Q9UM07 whole entry): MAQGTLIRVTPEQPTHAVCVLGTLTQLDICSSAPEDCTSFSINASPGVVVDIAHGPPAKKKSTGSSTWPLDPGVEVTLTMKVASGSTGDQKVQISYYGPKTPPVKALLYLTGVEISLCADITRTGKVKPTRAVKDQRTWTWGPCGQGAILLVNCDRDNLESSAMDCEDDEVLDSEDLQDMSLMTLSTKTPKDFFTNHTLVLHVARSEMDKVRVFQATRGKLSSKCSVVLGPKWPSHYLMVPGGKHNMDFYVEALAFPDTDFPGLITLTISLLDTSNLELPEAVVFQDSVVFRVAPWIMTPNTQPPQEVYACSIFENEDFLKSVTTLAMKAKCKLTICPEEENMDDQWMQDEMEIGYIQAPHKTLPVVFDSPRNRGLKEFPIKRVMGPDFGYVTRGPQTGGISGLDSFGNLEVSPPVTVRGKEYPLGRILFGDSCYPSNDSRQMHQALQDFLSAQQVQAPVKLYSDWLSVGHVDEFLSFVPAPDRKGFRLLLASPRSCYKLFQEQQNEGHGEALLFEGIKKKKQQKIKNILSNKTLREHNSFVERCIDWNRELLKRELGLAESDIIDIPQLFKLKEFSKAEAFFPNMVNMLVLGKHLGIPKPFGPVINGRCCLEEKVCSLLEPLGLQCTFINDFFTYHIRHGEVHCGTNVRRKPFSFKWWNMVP

| pIC50 | SMILES |
| --- | --- |
| 7.21 | COc1cc(C(=O)N2C[C@H]3CC[C@@H]2[C@@H]3N)cc2nc(-c3cc4cccnc4n3C)n(C[C@H]3CCN(c4ccnc(C5CC5)n4)C3)c12 [Example 209, (1R,4R,7R)-2-(1-{[(3S)-1-(2-cyclopropylpyrimidin-4-yl)pyrrolidin-3-yl]methyl}-7-methoxy-2-{1-methyl-1H-pyrrolo[2,3-b]pyridin-2-yl}-1H-1,3-benzodiazole-5-carbonyl)-2-azabicyclo[2.2.1]heptan-7-amine] |
| 7.03 | COc1cc(C(=O)N2C[C@H]3CC[C@@H]2[C@@H]3N)cc2nc(-c3cc4cccnc4n3C)n(CC3CN(c4nccnc4C#N)C3)c12 [Example 39, 3-[3-({5-[(1R,4R,7R)-7-amino-2-azabicyclo[2.2.1]heptane-2-carbonyl]-7-methoxy-2-{1-methyl-1H-pyrrolo[2,3-b]pyridin-2-yl}-1H-1,3-benzodiazol-1-yl}methyl)azetidin-1-yl]pyrazine-2-carbonitrile] |
| 7.52 | COc1cc(C(=O)N2CC3CCC2[C@@H]3N)cc2nc(-c3cc4cccnc4n3CC3CC3)n(CC3CN(C(=O)C4CCC(F)(F)C4)C3)c12 (stereo partly drawn) [Example 430, (7R)-2-{2-[1-(cyclopropylmethyl)-1H-pyrrolo[2,3-b]pyridin-2-yl]-1-{[1-(3,3-difluorocyclopentanecarbonyl)azetidin-3-yl]methyl}-7-methoxy-1H-1,3-benzodiazole-5-carbonyl}-2-azabicyclo[2.2.1]heptan-7-amine] |
| 7.28 | COc1cc(C(=O)N2CC3CCC2[C@@H]3N)cc2nc(-c3cc4cccnc4n3CC3CC3)n(CC3CN(C(=O)c4ccc(C#N)cc4F)C3)c12 (stereo partly drawn) [Example 454, 4-[3-({5-[(7R)-7-amino-2-azabicyclo[2.2.1]heptane-2-carbonyl]-2-(1-(cyclopropylmethyl)-1H-pyrrolo[2,3-b]pyridin-2-yl]-7-methoxy-1H-1,3-benzodiazol-1-yl}methyl)azetidine-1-carbonyl]-3-fluorobenzointrile] |
| 6.78 | COc1cc(C(=O)N2C[C@H]3CC[C@@H]2[C@@H]3N)cc2nc(-c3cc4cccnc4n3CC3CC3)n(CC3CN(c4nnc(C)o4)C3)c12 [Example 56, (1R,4R,7R)-2-{2-[1-(cyclopropylmethyl)-1H-pyrrolo[2,3-b]pyridin-2-yl]-7-methoxy-1-{[1-(5-methyl-1,3,4-oxadiazol-2-yl)azetidin-3-yl]methyl}-1H-1,3-benzodiazole-5-carbonyl}-2-azabicyclo[2.2.1]heptan-7-amine] |
| 6.82 | COc1cc(C(=O)N2C[C@H]3CC[C@@H]2[C@@H]3N)cc2nc(-c3cc4cccnc4n3CC3CC3)n(CC3CN(c4ccnc(C)c4)C3)c12 [Example 51, (1R,4R,7R)-2-{2-[1-(cyclopropylmethyl)-1H-pyrrolo[2,3-b]pyridin-2-yl]-7-methoxy-1-{[1-(2-methylpyridin-4-yl)azetidin-3-yl]methyl}-1H-1,3-benzodiazole-5-carbonyl}-2-azabicyclo[2.2.1]heptan-7-amine] |
| 5.93 | COc1cc(C(=O)N2C[C@H]3CC[C@@H]2[C@@H]3N)cc2nc(-c3cc4cccnc4n3CC3CC3)n(CCNS(C)(=O)=O)c12 [Example 286, N-(2-{5-[(1R,4R,7R)-7-amino-2-azabicyclo[2.2.1]heptane-2-carbonyl]-2-[1-(cyclopropylmethyl)-1H-pyrrolo[2,3-b]pyridin-2-yl]-7-methoxy-1H-1,3-benzodiazol-1-yl}ethyl)methanesulfonamide] |
| 8.10 | COc1cc(C(=O)N2C[C@H]3CC[C@@H]2[C@@H]3N)cc2nc(-c3cc4ccccc4n3CC3CC3)n(CC3CN(C(=O)c4ccc(C#N)c(F)c4)C3)c12 [Example 135, 4-[3-({5-[(1R,4R,7R)-7-amino-2-azabicyclo[2.2.1]heptane-2-carbonyl]-2-[1-(cyclopropylmethyl)-1H-indol-2-yl]-7-methoxy-1H-1,3-benzodiazol-1-yl}methyl)azetidine-1-carbonyl]-2-fluorobenzonitrile] |
| 5.82 | COc1cc(C(=O)N2CC3CCC2[C@@H]3N)cc2nc(-c3csc4ccc(Cl)cc34)n(CC3CN(C(=O)OCc4ccccc4)C3)c12 (stereo partly drawn) [Example 321, benzyl 3-({5-[(1R,4R,7R)-7-amino-2-azabicyclo[2.2.1]heptane-2-carbonyl]-2-(5-chloro-1-benzothiophen-3-yl)-7-methoxy-1H-1,3-benzodiazo1-1-yl}methyl)azetidine-l-carboxylate] |
| 7.96 | COc1cc(C(=O)N2C[C@H]3CC[C@@H]2[C@@H]3N)cc2nc(-c3cc4ccccc4n3CC3CC3)n(Cc3ccc(N)nc3)c12 [Example 244, (1R,4R,7R)-2-{1-[(6-aminopyridin-3-yl)methyl]-2-[1-(cyclopropylmethyl)-1H-indol-2-yl]-7-methoxy-1H-1,3-benzodiazole-5-carbonyl}-2-azabicyclo[2.2.1]heptan-7-amine] |
| 7.46 | COc1cc(C(=O)N2C[C@H]3CC[C@@H]2[C@@H]3N)cc2nc(-c3cc4cccnc4n3CC3CC3)n(C[C@H]3CCN(c4ccnc(C#N)n4)C3)c12 [Example 204, 4-[(3S)-3-({5-[(1R,4R,7R)-7-amino-2-azabicyclo[2.2.1]heptane-2-carbonyl]-2-[1-(cyclopropylmethyl)-1H-pyrrolo[2,3-b]pyridin-2-yl]-7-methoxy-1H-1,3-benzodiazol-1-yl}methyl)pyrrolidin-1-yl]pyrimidine-2-carbonitrile] |
| 5.72 | COc1cc(C(=O)N2CCC[C@@H](N)C2)cc2nc(-c3cc4cccnc4n3CC3CC3)n(C3CNC3)c12 [Example 310, (3R)-1-[1-(azetidin-3-yl)-2-[1-(cyclopropylmethvl)-1H-pyrrolo[2,3-b]pyridin-2-yl]-7-methoxy-1H-1,3-benzodiazole-5-carbonyl]piperidin-3-amine] |
| 7.23 | COc1cc(C(=O)N2C[C@H](N)C[C@@H](F)C2)cc2nc(-c3cc4cccnc4n3CC3CC3)n(Cc3cnn(-c4ncccn4)c3)c12 [Example 401, (3R,5R)-1-{2-[1-(cyclopropylmethyl)-1H-pyrrolo[2,3-b]pyridin-2-yl]-7-methoxy-1-{[1-(pyrimidin-2-yl)-1H-pyrazol-4-yl]methyl}-1H-1,3-benzodiazole-5-carbonyl}-5-fluoropiperidin-3-amine] |
| 7.34 | COc1cc(C(=O)N2C[C@H]3CC[C@@H]2[C@@H]3N)cc2nc(-c3cc4cccnc4n3CC3CC3)n(CC3CN(C(=O)C4CCCCC4)C3)c12 [Example 110, (1R,4R,7R)-2-{1-[(1-cyclohexanecarbonylazetidin-3-yl)methyl]-2-[1-(cyclopropylmethyl)-1H-pyrrolo[2,3-b]pyridin-2-yl]-7-methoxy-1H-1,3-benzodiazole-5-carbonyl}-2-azabicyclo[2.2.1]heptan-7-amine] |
| 7.11 | COc1cc(C(=O)N2C[C@H]3CC[C@@H]2[C@@H]3N)cc2nc(-c3cc4ccccc4n3C)n(CC3CN(c4ccnc(C)n4)C3)c12 [Example 6, ((1R,4R,7R)-7-amino-2-azabicyclo[2.2.1]heptan-2-yl)(7-methoxy-2-(1-methyl-1H-indol-2-yl)-1-((1-(2-methylpyrimidin-4-yl)azetidin-3-yl)methyl)-1H-benzo[d]imidazol-5-yl)methanone] |
| 7.60 | COc1cc(C(=O)N2C[C@H]3CC[C@@H]2[C@@H]3N)cc2nc(-c3cc4ccccc4n3CC3CC3)n(Cc3cccnc3)c12 [Example 246, (1R,4R,7R)-2-{2-[1-(cyclopropylmethyl)-1H-indol-2-yl]-7-methoxy-1-[(pyridin-3-yl)methyl]-1H-1,3-benzodiazole-5-carbonyl}-2-azabicyclo[2.2.1]heptan-7-amine] |
| 7.57 | COc1cccc(-n2cc(Cn3c(-c4cc5cccnc5n4CC4CC4)nc4cc(C(=O)N5CC6CCC5[C@@H]6N)cc(OC)c43)cn2)n1 (stereo partly drawn) [Example 365, (7R)-2-{2-[1-(cyclopropylmethyl)-1H-pyrrolo[2,3-b]pyridin-2-yl]-7-methoxy-1-{[1-(6-methoxypyridin-2-yl)-1H-pyrazol-4-yl]methyl}-1H-1,3-benzodiazole-5-carbonyl}-2-azabicyclo[2.2.1]heptan-7-amine] |
| 6.47 | COc1cc(C(=O)N2CC3CCC2[C@@H]3N)cc2nc(-c3cc4ccccc4n3CC3CC3)n(CCc3cnn(C)c3)c12 (stereo partly drawn) [Example 511, (7R)-2-{2-[1-(cyclopropylmethyl)-1H-indol-2-yl]-7-methoxy-1-[2-(1-methyl-1H-pyrazol-4-yl)ethyl]-1H-l,3-benzodiazole-5-carbonyl}-2-azabicyclo[2.2.1]heptan-7-amine] |
| 6.96 | COc1cc(C(=O)N2CC3CCC2[C@@H]3N)cc2nc(-c3cc4cccnc4n3CC3CC3)n(CC3CN(C(=O)[C@@H]4C[C@H]4C)C3)c12 (stereo partly drawn) [Example 128, (1R,4R,7R)-2-{2-[1-(cyclopropylmethyl)-1H-pyrrolo[2,3-b]pyridin-2-yl]-7-methoxy-1-({1-[(1R,2R)-2-methylcyclopropanecarbonyl]aze-tidin-3-yl}methyl)-1H-1,3-benzodiazole-5-carbonyl}-2-azabicyclo[2.2.1]heptan-7-amine] |
| 5.89 | COc1cc(C(=O)N2CC3CCC2[C@@H]3N)cc2nc(-c3cccn3C)n(CC3CN(c4ccnc(C#N)n4)C3)c12 (stereo partly drawn) [Example 318, 4-[3-({5-[(1R,4R,7R)-7-amino-2-azabicyclo[2.2.1]heptane-2-carbonyl]-7-methoxy-2-(1-methyl-1H-pyrrol-2-yl)-1H-1,3-benzodiazo1-1-yl)methyl)azetidin-1-yl]pyrimidine-2-carbonitrile] |
| 6.41 | COc1cc(C(=O)N2CC3CCC2[C@@H]3N)cc2nc(-c3cc4ccccc4n3C)n(Cc3cnn(C)c3)c12 (stereo partly drawn) [Example 513, (7R)-2-[7-methoxy-2-(1-methyl-1H-indol-2-yl)-1-[(1-methyl-1H-pyrazol-4-yl)methyl]-1H-1,3-benzodiazole-5-carbonyl]-2-azabicyclo[2.2.1]heptan-7-amine] |
| 5.94 | COc1cc(C(=O)N2CC3CCC2[C@@H]3N)cc2nc(-c3csc4ccc(Cl)cc34)n(CC3CN(c4cncc(C#N)c4)C3)c12 (some centres unmarked) [Example 316] |
| 7.46 | COc1cc(C(=O)N2C[C@H](N)C[C@@H](F)C2)cc2nc(-c3cc4cccnc4n3CC3CC3)n(Cc3cnn(-c4cccc(C(F)F)n4)c3)c12 [Example 375] |
